PMC12458685, “Thwarting Isomerization through Rigidity: A Promising HBED Derivative for the Chelation of Gallium-68” (Inorganic Chemistry, 2025)
Read-outs that look alike come from different tables or passages of the source.

Experiments:
[1] = Formation kinetics of Ga^3+-HBCD (1H NMR and UV–vis); format: physicochemical
Method: Before the thermodynamic investigation, the formation kinetics of the Ga^3+-HBCD complexes were qualitatively assessed using ^1H NMR and UV–vis spectroscopies at different pH and concentrations to determine the time needed to reach equilibrium. Understanding the equilibration conditions is essential for obtaining accurate thermodynamic data and for gaining an initial insight into the binding capacity of the new chelator.
The formation kinetics of the Ga^3+-HBCD complexes was evaluated at room temperature using ^1H NMR and UV–vis spectroscopies. Equimolar amounts of Ga^3+ and HBCD solutions (final concentrations: 1 mM for ^1H NMR, 50 μM for UV–vis) in buffered media (e.g., pH 2 HCl 10^–2 M, pH 4.5 acetic/acetate buffer). The complexation reaction was tracked by monitoring the increase in peaks characteristic of Ga^3+-ligand complex formation over time.

[2] = Thermodynamic stability of Ga^3+-HBCD (UV–vis and 1H NMR in-batch titrations; pGa^3+ calculation); format: physicochemical; details: for pGa^3+ (−log[Ga^3+]free): calculated at pH 7.4, C L = 10 μM and C Ga = 1 μM
Method: The thermodynamic stability of Ga^3+-HBCD was evaluated by UV–vis and ^1H NMR spectroscopies. Due to the slow complexation kinetics observed at highly acidic pH values, in-batch titrations were conducted, and heating was applied to speed up the attainment of equilibrium under these conditions. Representative pH-dependent ^1H NMR and UV–vis spectra are reported in Figures S12 and S13, respectively. The overall stability constants (log β) of Ga^3+-HBCD are provided in Table while the corresponding distribution diagram is shown in Figure in comparison with HBED.
To compare the chelating abilities of HBCD and HBED, the pGa^3+ values (pGa^3+ = −log[Ga^3+]free) were calculated under physiological conditions (pH = 7.4, C L = 10 μM and C Ga = 1 μM). This parameter accounts for both ligand basicity and metal-ion hydrolysis, with higher pGa^3+ values indicating greater complex stability under the given conditions.
(§1) UV–vis pH-spectrophotometric titrations were conducted using the in-cell method for the free HBCD and the out-of-cell method for the Ga^3+-HBCD mixture at T = 25 °C and I = 0.15 M NaCl. In the latter case, stock solutions of HBCD and Ga^3+ were combined in separate vials at 1:1 metal-to-ligand ratio (C Ga = C L = 20–50 μM). Small volumes (μL) of HCl and/or NaOH were used to adjust the pH. pH measurements were performed using a calibrated pH meter (Mettler-Toledo). The vials were sealed and heated to T = 80 °C to ensure complete complexation, then cooled to ambient temperature. The electronic spectra were recorded, and the equilibrium was considered to be reached when no further changes in either the pH or the electronic spectra were observed.
(§2) ^1H NMR spectra of free HBCD or Ga^3+-HBCD mixtures (C L = C Ga = 1 mM) were recorded at T = 25 °C and I = 0.15 M NaCl, in D2O, at different pH. The pH was adjusted following the procedure used in the UV–vis experiments. To account for isotopic effects, 0.41 log units were added to the measured pH values. Under highly acidic conditions, the pH was calculated from the HCl concentration using the formula pH = −log[C(H^+)]. […] Prolonged heating was applied to accelerate the complexation reaction. The thermodynamic data were elaborated with HypSpec, HypNMR or as described in previous publications. , Hydrolysis constants and solubility products of Ga^3+ in aqueous ionic media were taken from ref .

[3] = Stability of HBCD aqueous stock solution (NMR, ESI-MS, UV–vis); format: physicochemical; details: room temperature, up to one month
Method: HBCD stock solutions were prepared by dissolving a weighed amount of ligand directly in Milli-Q water to achieve a concentration of approximately 1 mM. The solubility of HBCD in water depends on pH: minimal values occur at acidic pH, where the noncharged form predominates. To enhance solubility, small amount of NaOH were added, and the solution was sonicated for 15 min. The stability of HBCD at room temperature was confirmed by NMR, ESI-MS and UV–vis measurements conducted over the course of up to one month following solution preparation.

[4] = Acidity constants of HBCD by pH-dependent 1H NMR titration; format: physicochemical; details: T = 25 °C, I = 0.15 M NaCl
From the text: The assignment of the other four protonation constants (pK a,3, pK a,4, pK a,5 and pK a,6) is extremely challenging. […] According to NMR data of HBCD, pK a,3 can reasonably be assigned to one of the tertiary ammine. Once this dissociation occurs, the nitrogen atom can form a hydrogen bond with the phenolic group or with the other amine group. The next dissociation (pK a,4) can be attributed to the other phenolic moiety that can be then involved in the formation of the hydrogen bond with the protonated ammine. The last two dissociations can tentatively be attributed to the second phenolic group (pK a,5) and the tertiary amine (pK a,6).
as §2

[5] = Acidity constants of HBCD by UV–vis pH-spectrophotometric titration; format: physicochemical; details: T = 25 °C, I = 0.15 M NaCl
Method: As the pH increases, the intensity of the band at 275 nm decreases, while two new bands emerge at 241 and 298 nm, with their absorbance progressively increasing. […] These pH-dependent changes in the electronic spectra allowed the determination of the acidity constants (pK a) of HBCD, which are summarized in Table .
as §1

[6] = parameters: method as in number not given; details: ref number not given, cited from earlier work; for pGa^3+: under the same conditions (pH 7.4, C L = 10 μM, C Ga = 1 μM)
[7] = parameters: method as in number not given; details: I = 0.10 M KCl, T = 25 °C; literature data, ref number not given; cited from earlier work
[8] = parameters: method as in number not given; details: for in vivo imaging; ref number not given; cited from earlier work

## O=C(O)CN(Cc1ccccc1O)[C@@H]1CCCC[C@H]1N(CC(=O)O)Cc1ccccc1O [HBCD, N,N′-di(2-hydroxybenzyl)-(1,2-cyclohexanediamine)-N,N′-diacetic acid]
[1]; pH ∼ 2, room temperature, after 24 h, 1H NMR
  Ga^3+ complex formation: no complex formation was observed
[1]; pH ∼ 4.5, 50 μM, UV–vis
  time to reach completion of Ga^3+ complexation: approximately 1 h
[1]; pH ∼ 4.5, mM metal and ligand concentrations, 1H NMR
  Ga^3+ complexation rate: nearly instantaneous
[2]; T = 25 °C, I = 0.15 M NaCl
  log β, Ga^3+ + H^+ + L^4– ⇌ [GaHL]: 41.2 ± 0.1
  log β, Ga^3+ + L^4– ⇌ [GaL]^−: 39.2 ± 0.1
[2]
  pGa^3+ (−log[Ga^3+]free): 27.0
[3]
  stability of HBCD in solution: confirmed
[4]
  pK a,1 (H6L^2+ ⇌ H^+ + H5L^+): 1.1 ± 0.2
  pK a,2 (H5L^+ ⇌ H^+ + H4L): 3.1 ± 0.3
  pK a,3 (H4L ⇌ H^+ + H3L^–): 4.9 ± 0.4
  pK a,4 (H3L^– ⇌ H^+ + H2L^2–): 9.7 ± 0.3
  pK a,5 (H2L^2– ⇌ H^+ + HL^3–): 12.2 ± 0.1
  pK a,6 (HL^3– ⇌ H^+ + L^4–): 13.5 ± 0.2
[5]; UV–vis
  pK a,3 (H4L ⇌ H^+ + H3L^–): 5.20 ± 0.06
  pK a,4 (H3L^– ⇌ H^+ + H2L^2–): 9.42 ± 0.04
  pK a,5 (H2L^2– ⇌ H^+ + HL^3–): 11.94 ± 0.03
  pK a,6 (HL^3– ⇌ H^+ + L^4–): 13.2 ± 0.2
[5]; calculated from UV–vis data
  average value of pK a,1 and pK a,2: d An average value of pK a,1 and pK a,2 equal to 1.7 ± 0.2 was calculated from UV–vis data.

## O=C(O)CN(CCN(CC(=O)O)Cc1ccccc1O)Cc1ccccc1O [HBED, N,N′-di(2-hydroxybenzyl)ethylenediamine-N,N′-diacetic acid]
[6]; literature data
  log β, Ga^3+ + H^+ + L^4– ⇌ [GaHL]: 40.81
  log β, Ga^3+ + L^4– ⇌ [GaL]^−: 38.51
[2]
  pGa^3+ (−log[Ga^3+]free): 29.6
[7]
  pK a,2 (H5L^+ ⇌ H^+ + H4L): 2.24
  pK a,3 (H4L ⇌ H^+ + H3L^–): 4.40
  pK a,4 (H3L^– ⇌ H^+ + H2L^2–): 8.34
  pK a,5 (H2L^2– ⇌ H^+ + HL^3–): 11.03
  pK a,6 (HL^3– ⇌ H^+ + L^4–): 12.64

## O=C(O)CN1CCN(CC(=O)O)CCN(CC(=O)O)CCN(CC(=O)O)CC1 [DOTA, 1,4,7,10-tetraazacyclododecane-1,4,7,10-tetraacetic acid]
[6]
  pGa^3+: 18.5

## O=C(O)CN(Cc1cccc(C(=O)O)n1)Cc1cccc(C(=O)O)n1 [dpaa]
[8]
  serum stability of the [^68Ga]Ga^3+ complex: poor

## transferrin: iron-transporting protein, one of the primary in vivo competitors for Ga^3+
[6]
  pGa^3+: 20.3
